Measurements as given in patent US20250154140A1 (Sunnybrook Research Institute, priority 2022, published 2025).

Experiments:
Assay type in all cases: biochemical
[1] = target: BAX (Homo sapiens, UniProt Q07812); experiment: Liposome membrane permeabilization / dye release assay (cBID activated BAX); parameters: made in house; host or cells: Escherichia coli BL21-AI; details: 20 nM cBID and 100 nM BAX
Experimental: The preparation of liposomes and dye-release assays were as previously described (Kale et al., 2014). The composition of liposomes, in molar %, to make a 1 mg/mL lipid film are as follows: 48% phosphatidylcholine, 28% phosphatidylethanolamine, 10% phosphatidylinositol, 10% dioleoyl phosphatidylserine, and 4% tetraoleoyl cardiolipin. Each lipid (dissolved in chloroform) was mixed in a glass test tube. Using a steady stream of nitrogen pointed inside the test tube, the tube is rotated to create a film of lipids on the glass. The tube is filled with nitrogen and covered with parafilm. The dried lipid film is then stored at −20° C. until needed. […]
The choice of ANTS/DPX or Terbium:DPA liposomes for dye release assays was dictated by the properties of those compounds being assayed for BAX inhibitory activity, that affected the fluorescence of ANTS or Terbium.
For ANTS/DPX dye release assays: ANTS (fluorophore; excitation 355 nm, emission 520 nm) and DPX (collisional quencher) are encapsulated in reconstituted liposomes. When the membrane is permeabilized, ANTS and DPX diffuse to the outside of the liposomes, decreasing the effective concentration DPX and therefore quenching by […] is decreased and ANTS fluorescence increases. […] The plate was then read a third time to assess the fluorescence of ANTS upon full dissociation of liposomes in each well (F100). […]

[2] = target: T1, BAK (Mus musculus, UniProt O08734); experiment: Permeabilization of isolated mitochondria, Smac-mCherry release (BIM activated BAK); details: concentrations up to 60 uM
T1 construct: endogenous in cells; host or cells: heavy membranes (mitochondria) of BAX-/- baby mouse kidney cells expressing Smac-mCherry
T1 sequence (O08734 2-209 limits assumed): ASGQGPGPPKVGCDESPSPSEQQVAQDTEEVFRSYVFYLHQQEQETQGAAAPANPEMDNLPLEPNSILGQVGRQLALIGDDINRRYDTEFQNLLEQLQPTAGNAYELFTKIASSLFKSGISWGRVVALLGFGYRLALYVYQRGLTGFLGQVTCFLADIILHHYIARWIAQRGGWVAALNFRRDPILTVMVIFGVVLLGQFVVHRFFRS

[3] = target: T2, FL EGFR (Homo sapiens, UniProt P00533); experiment: EGFR kinase assay (ADP-Glo)
T2 construct: kinase domain of EGFR (amino acids 695-1210); purchased Promega V3831
T2 sequence (P00533 695-1210): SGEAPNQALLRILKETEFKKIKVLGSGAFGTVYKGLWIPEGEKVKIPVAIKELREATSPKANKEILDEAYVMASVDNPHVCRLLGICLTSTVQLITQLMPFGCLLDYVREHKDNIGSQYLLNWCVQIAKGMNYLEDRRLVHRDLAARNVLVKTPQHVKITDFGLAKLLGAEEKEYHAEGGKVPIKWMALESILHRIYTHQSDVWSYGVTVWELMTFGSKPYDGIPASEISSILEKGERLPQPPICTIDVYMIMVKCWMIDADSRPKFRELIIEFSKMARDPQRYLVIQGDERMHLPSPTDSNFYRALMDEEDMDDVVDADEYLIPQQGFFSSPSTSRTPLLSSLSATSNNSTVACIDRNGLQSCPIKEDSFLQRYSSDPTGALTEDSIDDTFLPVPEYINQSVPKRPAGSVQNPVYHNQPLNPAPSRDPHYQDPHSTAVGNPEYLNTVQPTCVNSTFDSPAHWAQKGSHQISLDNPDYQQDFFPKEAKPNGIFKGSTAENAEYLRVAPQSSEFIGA
Experimental: A peptide containing the kinase domain of EGFR (amino acids 695-1210) was used to assess the inhibitory potency of the inhibitors. The ADP-Glo kinase assay (Promega V9101), and the EGFR kinase enzyme (Promega V3831) were used according to the supplier's instructions. Briefly, […] reactions were assembled in wells of a 384 well plate as follows: 5 μL of the kinase reaction, 5 μL of the ADP depletion reagent, and 10 μL of the luciferase reagent. For the kinase reaction: 1 μL of the inhibitor (dissolved in DMSO) was mixed with 2 μL EGFR peptide ([…]), 1 μL of a poly Glu4Tyr1 peptide (0.2 μg/μL), 1 μL reaction buffer, and 1 μL of ATP (final concentration of 5 μM). The kinase reaction was incubated at room temperature for 1 hour. 5 μL of the ATP depletion/kinase terminating reagent was mixed into each well and incubated at room temperature for 40 minutes. 10 μL of the kinase detection reagent containing luciferase was mixed into each well and incubated at room temperature for 30 minutes for bioluminescent detection of ADP produced from the kinase reaction in step 1. Bioluminescent signal was detected in a Tecan Safire^2 with a black plug covering the excitation filter, and an empty emission filter. The integration time was increased to […] to detect enough luminescence per reading.

Sequence of BAX (Q07812 whole entry): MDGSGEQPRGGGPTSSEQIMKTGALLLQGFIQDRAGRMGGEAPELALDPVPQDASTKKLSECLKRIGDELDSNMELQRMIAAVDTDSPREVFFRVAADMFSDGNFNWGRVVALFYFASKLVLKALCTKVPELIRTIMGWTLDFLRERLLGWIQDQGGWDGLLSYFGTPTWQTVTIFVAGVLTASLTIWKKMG

| Compound | BAX inhibitory activity, cBID activated BAX mediated liposome permeabilization [1] | inhibition of BAK mediated permeabilization of mitochondria [2] | kinase inhibitory activity ([3]; at or below 10 uM) | Hill Slope ([3]; FL EGFR) |
| --- | --- | --- | --- | --- |
| COc1cc2ccnc(Nc3ccc(F)c(Cl)c3)c2cc1NC(=O)CCCN1CCCCC1 [Compound I-1, N-(1-((3-chloro-4-fluorophenyl)amino)-6-methoxyisoquinolin-7-yl)-4-(piperidin-1-yl)butanamide] | retained BAX inhibitory activity equivalent to comparative compound dacomitinib | equally effective inhibitors | no appreciable kinase inhibitory activity | – |
| COc1cc2ncnc(Nc3ccc(F)c(Cl)c3)c2cc1NC(=O)/C=C/CN1CCCCC1 [Dacomitinib, reference compound] | identified in a screen for compounds that inhibit | equally effective inhibitors | – | −1.3 |
